Each compound was assayed against T1, human Nav1.8 (hNav1.8) ion channel (Homo sapiens, UniProt Q9Y5Y9) (assay: Nav1.8 channel inhibition, estimated IC50 (one or more of: fluorescence inhibition assay, PatchXpress, IonFlux HT automated patch clamp)). Settings: HEK293 cells stably expressing hNav1.8; method used per compound not stated; read-out: Activity range (estimated IC50).
T1 construct: expressed in transfected cells; host or cells: HEK293
Type: cell-based
Experimental: The ability of pyridine carboxamide derivatives exemplified above to inhibit the Nav1.8 channel was determined using one or more of the methods described below.
HEK Nav1.8 β1/β2 Stably Expressing Cell Line
A HEK293 cell line stably expressing the human Nav1.8 (hNav1.8) ion channel with β1/β2 subunits was constructed. The cell line is suitable for IC50 determination in fluorescence and electrophysiological based assays. It is also suitable to form mechanism of action pharmacology studies in electrophysiological assays. HEK293 Nav 1.8 cells are grown as adherent monolayers in DMEM/high glucose media, 10% fetal bovine serum, Na pyruvate (2 mM), Hepes (10 mM) with selection agents G418 (400 mg/L) and puromycin (0.5 mg/L) at 37 degrees C., 10% CO2.
Nav 1.8 Fluorescence Inhibition Assay
Compounds were made up to or supplied as a 10-mM stock solution using DMSO as the vehicle. Concentration-response curves were generated using a Matrix multichannel pipettor. Compound source plates were made by diluting 10 mM compound stocks to create 500 μM (100×) solutions in DMSO in 96-well v-bottom plates. Compounds were then serially diluted in 100% DMSO to generate a 5 point, 4-fold dilution scheme dose response curve. 2 μL of the 100× dose response curves was then added to preincubation and stimulation assay plates. 100 μL of pre-incubation buffer and 200 μL of stimulation buffer were then added to the plates resulting in a final assay test concentration range of 5 μM to 0.02 μM with a final DMSO concentration of 1%.
On the day of assay, plates were washed to remove cell culture media using 2K EBSS buffer (135 mM NaCl, 2 mM KCl, 5 mM Glucose, 2 mM CaCl2), 1 mM MgCl2, 10 mM HEPES, pH 7.4). The Na-sensitive fluorescent dye, Asante Natrium Green-2 (ANG-2) is incubated for 60 min to allow equilibration and then washed with 2K EBSS. Plates are the transferred to a fluorescence plate reader (FLIPR™, Molecular Devices) for fluorescence measurement using an excitation wavelength of 490 nm and an emission wavelength of 565 nm. Compounds are pre-incubated at for 5 min at final test concentration in the presence of ouabain (30 μM) to inhibit Na+ efflux through Na+/K+ exchanger. Following the pre-incubation phase, hNav1.8 channels are stimulated with 10 μM of the pyrethroid deltamethrin to prevent channel inactivation. The assay was run for 15 min with vehicle and 30 μM tetracaine serving as negative and positive controls, respectively. The peak change in fluorescence relative to negative and positive control wells was calculated and fit with a logistic equation to determine IC50.
PatchXpress Nav 1.8 Inhibition Assay
HEK-Nav1.8 β1/β2 cells were recorded in whole cell patch-clamp using the PatchXpress automated patch clamp platforms (Molecular Devices). Cells suspensions were obtained by trypsinization of adherent monolayers, followed by gentle rocking for minimally 30 min. Compounds were prepared from 10 mM DMSO stocks.
Nav1.8 channel variants were evaluated using Protocol 1 (FIG. 2) in which cells were initially voltage clamped at a holding potential of −100 mV to maintain Nav1.8 in a closed resting state. After current amplitude becomes stable, the mid-point voltage of steady state inactivation was determined for each cell using a series of 5 sec conditioning steps to increasingly depolarized voltages (−100 to 0 mV) The holding potential was then reset to a voltage that produces ˜50% inactivation (Vhalf−set automatically via PatchXpress scripts) so that closed and inactivated channel inhibition can be assessed. Protocol 1 was run at a frequency of 0.1 Hz until current amplitude is steady (automatically determined by PatchXpress scripts). The effect of test reagent on Nav current amplitude was monitored using custom PatchXpress stability scripts which determines the timing of compound addition and washout. Data were processed and analyzed using DataXpress 2.0 (Molecular Devices). […]

T1 sequence (Q9Y5Y9 whole entry): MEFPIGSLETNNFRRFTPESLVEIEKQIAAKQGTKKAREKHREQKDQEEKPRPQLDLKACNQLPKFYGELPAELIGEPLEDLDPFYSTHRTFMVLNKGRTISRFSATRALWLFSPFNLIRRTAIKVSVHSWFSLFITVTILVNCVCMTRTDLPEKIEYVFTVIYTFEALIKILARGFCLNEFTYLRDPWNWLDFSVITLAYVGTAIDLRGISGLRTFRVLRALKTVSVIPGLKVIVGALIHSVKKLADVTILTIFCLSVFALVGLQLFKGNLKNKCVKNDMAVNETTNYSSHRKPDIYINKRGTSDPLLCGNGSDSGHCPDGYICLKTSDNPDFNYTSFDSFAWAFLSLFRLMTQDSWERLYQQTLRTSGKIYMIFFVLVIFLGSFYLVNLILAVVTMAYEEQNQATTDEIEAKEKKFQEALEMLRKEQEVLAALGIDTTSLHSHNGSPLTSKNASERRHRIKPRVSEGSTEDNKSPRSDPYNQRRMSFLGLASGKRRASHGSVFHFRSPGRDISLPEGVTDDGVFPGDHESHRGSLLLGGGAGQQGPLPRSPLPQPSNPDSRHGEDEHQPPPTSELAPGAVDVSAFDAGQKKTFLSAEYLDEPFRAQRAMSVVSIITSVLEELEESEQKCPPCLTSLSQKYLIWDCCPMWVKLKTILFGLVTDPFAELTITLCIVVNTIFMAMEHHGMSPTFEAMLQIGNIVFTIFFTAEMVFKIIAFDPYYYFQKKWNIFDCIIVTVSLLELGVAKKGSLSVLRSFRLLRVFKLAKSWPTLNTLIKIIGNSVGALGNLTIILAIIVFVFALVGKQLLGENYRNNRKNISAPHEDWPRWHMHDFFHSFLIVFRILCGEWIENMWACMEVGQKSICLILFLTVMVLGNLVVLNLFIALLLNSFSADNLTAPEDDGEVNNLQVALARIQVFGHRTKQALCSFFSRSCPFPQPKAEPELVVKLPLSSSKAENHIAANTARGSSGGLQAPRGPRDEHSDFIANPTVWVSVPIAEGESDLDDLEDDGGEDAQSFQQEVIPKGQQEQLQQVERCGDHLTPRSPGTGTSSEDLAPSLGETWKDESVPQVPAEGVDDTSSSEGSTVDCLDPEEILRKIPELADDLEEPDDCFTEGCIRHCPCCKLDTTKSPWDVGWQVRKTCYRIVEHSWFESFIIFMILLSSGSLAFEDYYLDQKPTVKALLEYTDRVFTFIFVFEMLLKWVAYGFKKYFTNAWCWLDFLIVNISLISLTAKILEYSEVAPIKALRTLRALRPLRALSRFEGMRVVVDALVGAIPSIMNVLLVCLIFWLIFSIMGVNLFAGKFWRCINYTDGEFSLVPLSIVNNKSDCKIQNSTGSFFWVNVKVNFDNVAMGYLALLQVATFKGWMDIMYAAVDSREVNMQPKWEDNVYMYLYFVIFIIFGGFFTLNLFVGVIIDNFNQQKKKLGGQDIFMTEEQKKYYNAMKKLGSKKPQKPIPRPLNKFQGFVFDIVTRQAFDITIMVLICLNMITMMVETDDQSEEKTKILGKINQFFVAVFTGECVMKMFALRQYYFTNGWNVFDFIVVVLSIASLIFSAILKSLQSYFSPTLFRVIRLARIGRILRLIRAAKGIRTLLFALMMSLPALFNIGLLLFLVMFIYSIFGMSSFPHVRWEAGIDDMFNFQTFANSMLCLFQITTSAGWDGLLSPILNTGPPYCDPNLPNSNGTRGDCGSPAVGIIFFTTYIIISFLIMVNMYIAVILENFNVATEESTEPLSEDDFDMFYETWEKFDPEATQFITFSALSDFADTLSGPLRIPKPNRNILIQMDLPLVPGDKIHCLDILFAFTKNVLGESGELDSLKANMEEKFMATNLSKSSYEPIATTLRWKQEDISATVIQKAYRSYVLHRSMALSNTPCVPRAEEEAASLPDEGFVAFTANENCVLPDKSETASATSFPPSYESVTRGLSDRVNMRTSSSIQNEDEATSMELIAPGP

Structure (SMILES)	IC50 [nM]
CS(=N)(=O)c1cccc(NC(=O)c2cc(C(F)(F)F)cnc2Oc2ccc(OC(F)(F)F)cc2)c1 (single isomer, unassigned) [Example 130, N-[3-(methylsulfonimidoyl)phenyl]-2-[4-(trifluoromethoxy)phenoxy]-5-(trifluoromethyl)pyridine-3-carboxamide]	< 500
O=C(Nc1ccc[n+]([O-])c1)c1cnc(C(F)(F)F)cc1Oc1ccc(OC(F)F)cc1 [Example 86, 4-[4-(difluoromethoxy)phenoxy]-N-(1-oxidopyridin-1-ium-3-yl)-6-(trifluoromethyl)pyridine-3-carboxamide]	500 to 1000
CN=S(C)(=O)c1cccc(NC(=O)c2cc(C(F)(F)F)cnc2Oc2ccc(OC(F)(F)F)cc2Cl)c1 (centres unmarked) [Example 144, 2-[2-chloro-4-(trifluoromethoxy)phenoxy]-N-[3-(N,S-dimethylsulfonimidoyl)phenyl]-5-(trifluoromethyl)pyridine-3-carboxamide]	< 500
Cc1ccc(Oc2ncc(C(F)(F)F)cc2C(=O)Nc2cccc(S(C)(=O)=O)c2)cc1 [Example 44, 2-(4-methylphenoxy)-N-(3-methylsulfonyl-phenyl)-5-(trifluoromethyl)pyridine-3-carboxamide]	> 1000
COc1cc(F)ccc1Oc1cc(C(F)(F)F)ncc1C(=O)Nc1cc(S(C)(=O)=O)ccc1F [Example 69, 4-(4-fluoro-2-methoxy-phenoxy)-N-(2-fluoro-5-methylsulfonyl-phenyl)-6-(trifluoromethyl)pyridine-3-carboxamide]	< 500
CS(=N)(=O)c1cccc(NC(=O)c2cnc(C(F)(F)F)cc2Oc2ccc(OC(F)(F)F)cc2Cl)c1 (centres unmarked) [Example 80, 4-[2-chloro-4-(trifluoromethoxy)phenoxy]-N-[3-(methylsulfonimidoyl)phenyl]-6-(trifluoromethyl)pyridine-3-carboxamide]	< 500
COc1cc(NC(=O)c2cc(C(F)(F)F)cnc2Oc2ccc(F)cc2C)ccn1 [Example 109, 2-(4-fluoro-2-methyl-phenoxy)-N-(2-methoxy-4-pyridyl)-5-(trifluoromethyl)pyridine-3-carboxamide]	> 1000
O=C(Nc1cccc(F)c1)c1cc(C(F)(F)F)cnc1Oc1ccc(OC(F)(F)F)cc1Cl [Example 163, 2-[2-chloro-4-(trifluoromethoxy)phenoxy]-N-(3-fluorophenyl)-5-(trifluoromethyl)pyridine-3-carboxamide]	> 1000
CS(=O)(=O)c1cccc(NC(=O)c2cc(C(F)(F)F)cnc2Oc2cccc(F)c2)c1 [Example 42, 2-(3-fluorophenoxy)-N-(3-methylsulfonyl-phenyl)-5-(trifluoromethyl)pyridine-3-carboxamide]	500 to 1000
CN=S(C)(=O)c1cccc(NC(=O)c2cnc(C(F)(F)F)cc2Oc2ccc(F)cc2OC)c1 (centres unmarked) [Example 70, N-[3-(N,S-dimethylsulfonimidoyl)phenyl]-4-(4-fluoro-2-methoxy-phenoxy)-6-(trifluoromethyl)pyridine-3-carboxamide]	< 500
CS(=O)(=O)c1cccc(NC(=O)c2cc(C(F)(F)F)cnc2Oc2cc(F)c(F)c(F)c2)c1 [Example 55, N-(3-methylsulfonyl-phenyl)-5-(trifluoromethyl)-2-(3,4,5-trifluorophenoxy)pyridine-3-carboxamide]	500 to 1000
CC(=O)c1cccc(NC(=O)c2cc(C(F)(F)F)cnc2Oc2ccc(OC(F)(F)F)cc2Cl)c1 [Example 149, N-(3-acetylphenyl)-2-[2-chloro-4-(trifluoromethoxy)phenoxy]-5-(trifluoromethyl)pyridine-3-carboxamide]	> 1000
CS(=N)(=O)c1cccc(NC(=O)c2cnc(C(F)(F)F)cc2Oc2ccc(F)cc2F)c1 (centres unmarked) [Example 103, 4-(2,4-difluorophenoxy)-N-[3-(methylsulfonimidoyl)phenyl]-6-(trifluoromethyl)pyridine-3-carboxamide]	> 1000
CC(C)c1ccccc1Oc1ncc(C(F)(F)F)cc1C(=O)Nc1cccc(S(C)(=O)=O)c1 [Example 46, 2-(2-isopropylphenoxy)-N-(3-methylsulfonyl-phenyl)-5-(trifluoromethyl)pyridine-3-carboxamide]	< 500
